Data on seven compounds can be found in patent publication US20240189438A1, “DRUG CONJUGATE OF GLUCOCORTICOID RECEPTOR AGONIST, AND APPLICATION THEREOF IN MEDICINE” (Shanghai Senhui Medicine Co., Ltd., priority 2021, published 2024).

In experiment [1] the test system is GRE reporter gene in A549 cells. Kind of experiment: GRE reporter gene assay in A549 cells (MMTV-Luc). The class given is cell-based. The conditions noted are these: 24 h; for EC50: Homo sapiens. On the procedure:
4. GRE reporter gene assay A549 cells were plated (40,000 cells/96-well plate), transfected with pGL4.36 (MMTV-Luc, 100 ng/well) using lipo3000, cultured overnight and then incubated with different concentrations of small-molecule steroids. After 24 h, the expression of luciferase in the reporter gene system was detected using the Bright-Glo (promega) assay reagent.
(In general: A reporter such as luciferase makes a cellular process visible.)

In another experiment the target is T1, human recombinant GR (Homo sapiens, UniProt P04150).
T1 sequence (P04150 1-777): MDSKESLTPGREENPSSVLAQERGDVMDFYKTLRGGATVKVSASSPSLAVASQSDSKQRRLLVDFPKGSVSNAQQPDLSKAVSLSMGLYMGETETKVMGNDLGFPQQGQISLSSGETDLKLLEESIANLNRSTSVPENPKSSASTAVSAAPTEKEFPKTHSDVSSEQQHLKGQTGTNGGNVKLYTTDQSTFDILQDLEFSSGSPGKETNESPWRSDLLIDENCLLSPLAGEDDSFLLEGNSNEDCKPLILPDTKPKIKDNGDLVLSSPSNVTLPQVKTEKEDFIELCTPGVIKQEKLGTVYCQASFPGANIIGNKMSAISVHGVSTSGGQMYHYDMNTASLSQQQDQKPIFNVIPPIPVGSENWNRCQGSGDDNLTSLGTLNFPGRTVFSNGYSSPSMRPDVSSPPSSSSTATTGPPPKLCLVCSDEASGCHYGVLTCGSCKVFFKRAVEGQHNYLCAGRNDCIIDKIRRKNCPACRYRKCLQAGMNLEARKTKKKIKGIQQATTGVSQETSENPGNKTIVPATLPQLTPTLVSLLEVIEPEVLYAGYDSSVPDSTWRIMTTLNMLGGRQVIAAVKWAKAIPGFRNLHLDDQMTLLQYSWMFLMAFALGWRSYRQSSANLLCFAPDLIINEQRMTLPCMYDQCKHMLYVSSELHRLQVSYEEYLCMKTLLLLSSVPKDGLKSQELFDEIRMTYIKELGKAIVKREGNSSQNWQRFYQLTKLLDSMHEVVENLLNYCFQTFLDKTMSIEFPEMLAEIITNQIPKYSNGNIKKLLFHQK
The experiment in a line: human glucocorticoid NHR (radiolabeled agonist) binding assay. The conditions noted are these: competition with 5 nM [3H]dexamethasone, 4° C., 24 h. On the procedure:
2. Glucocorticoid Receptor Binding Assay
The assays were based on the following principle: Different concentrations of a small-molecule steroid and 5 nM [3H]dexamethasone are incubated with human recombinant GR at 4° C. for 24 h. The small-molecule steroid competes with [3H]dexamethasone for binding to human GR. The binding activity of the small-molecule steroid for GR can be calculated by counting the number of [3H]dexamethasone molecules that bind specifically to the receptor.

The target in experiment [2] is T2, mineralocorticoid receptor (MR) (Homo sapiens, UniProt P08235).
T2 construct: expressed in transfected cells; host or cells: PathHunter NHR CHO-K1 cells
T2 sequence (P08235 1-984): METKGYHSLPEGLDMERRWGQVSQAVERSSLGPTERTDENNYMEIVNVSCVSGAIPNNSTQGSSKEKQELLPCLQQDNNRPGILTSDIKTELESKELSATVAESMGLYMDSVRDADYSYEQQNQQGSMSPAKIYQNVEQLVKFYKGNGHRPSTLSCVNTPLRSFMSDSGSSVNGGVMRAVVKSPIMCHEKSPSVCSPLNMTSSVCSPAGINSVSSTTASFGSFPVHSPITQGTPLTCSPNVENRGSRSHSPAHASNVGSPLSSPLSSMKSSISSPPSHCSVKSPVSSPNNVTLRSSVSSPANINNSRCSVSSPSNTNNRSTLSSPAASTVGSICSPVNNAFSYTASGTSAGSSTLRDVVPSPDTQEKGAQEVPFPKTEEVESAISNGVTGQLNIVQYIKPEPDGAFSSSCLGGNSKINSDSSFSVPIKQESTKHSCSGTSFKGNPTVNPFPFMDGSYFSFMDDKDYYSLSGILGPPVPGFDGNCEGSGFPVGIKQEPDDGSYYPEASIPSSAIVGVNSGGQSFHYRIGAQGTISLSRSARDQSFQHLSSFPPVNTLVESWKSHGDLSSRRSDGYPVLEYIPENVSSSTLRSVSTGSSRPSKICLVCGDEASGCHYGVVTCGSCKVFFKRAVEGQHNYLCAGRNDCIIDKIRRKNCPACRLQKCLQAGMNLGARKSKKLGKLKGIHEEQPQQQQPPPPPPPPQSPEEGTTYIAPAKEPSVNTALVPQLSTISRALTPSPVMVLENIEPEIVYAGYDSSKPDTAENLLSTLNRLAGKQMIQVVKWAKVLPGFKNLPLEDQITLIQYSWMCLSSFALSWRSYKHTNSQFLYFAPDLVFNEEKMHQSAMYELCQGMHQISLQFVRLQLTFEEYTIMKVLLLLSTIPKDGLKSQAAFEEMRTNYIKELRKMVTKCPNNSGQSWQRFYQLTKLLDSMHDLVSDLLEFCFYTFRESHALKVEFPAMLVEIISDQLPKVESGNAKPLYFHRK
Kind of experiment: Mineralocorticoid receptor agonist activity, PathHunter NHR nuclear translocation assay. Particulars: PathHunter NHR CHO-K1 cells. The class given is cell-based. On the procedure:
3. Mineralocorticoid Receptor Agonist Activity Assay The mineralocorticoid receptor (MR) agonist activity of small-molecule steroids was tested using a PathHunter® NHR nuclear translocation assay. PathHunter NHR CHO-K1 cells were plated onto a 384-well white-wall microplate and co-incubated with test small-molecule steroids at 37° C. in 5% CO2 to induce reactions. Assay signals were generated using the PathHunter assay reagent mix. After one hour of incubation at room temperature, chemiluminescent signals were detected. The data were analyzed using four-parameter curve fitting to generate EC50 values.

Experiment [3] relates to mouse collagen antibody-induced arthritis (CAIA) model. The experiment in a line: Mouse collagen antibody-induced arthritis (CAIA) model. The class given is in vivo. The conditions noted are these: 10 mg/kg intraperitoneally twice a week; FIG. 6. The procedure: Male balb/c mice, 6 w, purchased from the Laboratory Animal Management Department, Shanghai Institute of Planned Parenthood Research. Housing environment: SPF; production license SCXK (Shanghai) 2018-0006; Balb/c mouse certification number: 20180006023393.
Upon arrival, the test animals were acclimatized for 7 days and randomly grouped. On day 0, each group of mice was intraperitoneally injected with 1.5 mg/mouse of type II collagen antibody cocktail (purchased from Chondrex Inc.) for modeling except for the control group. On day 3, each group of mice was intraperitoneally injected with […] of LPS (100 μL) to boost the immune response except for the control group. Administration to each group of mice began on day 5, and limb arthritis was scored every 1-3 days. Mice were dosed according to the following administration regimens. The severity of arthritis in each group of mice was semi-quantitatively scored every 1-3 days and further, the anti-inflammatory activity of anti-TNF-ADCs was evaluated.

By EC50 is commonly meant the concentration needed to bring the measured effect to its halfway point. A high value points to lower potency in that assay. One may read the IC50 as the concentration that inhibits the measured activity by half.

On to `C[C@]12C=CC(=O)C=C1CC[C@@H]1[C@@H]2[C@@H](O)C[C@@]2(C)[C@H]1C[C@H]1O[C@@H](c3ccc(Cc4cccc(N)c4)cc3)O[C@]12C(=O)CO` [A-A, reference compound], for which, in experiment [1], the “GRE reporter gene Emax” value was determined as 1.45E6 RLU and the midpoint of the response, the EC50, lay at 0.6 nM.
As to `C[C@]12C=CC(=O)C=C1CC[C@@H]1[C@@H]2[C@@H](O)C[C@@]2(C)[C@H]1C[C@H]1O[C@@H](c3ccc(-c4ccc(-c5cccc(N)c5)cc4)cc3)O[C@]12C(=O)CO` [Compound 1-A], the half-maximal inhibitory concentration (IC50) on human recombinant GR amounted to 4.37 nM. The EC50 in experiment [2] was more than 200000 nM. In addition, in experiment [1], the “GRE reporter gene Emax” value is listed as 7.67E5 RLU and the EC50 came out at 22.6 nM.
As for `C[C@]12C=CC(=O)C=C1CC[C@@H]1[C@@H]2[C@@H](O)C[C@@]2(C)[C@H]1C[C@H]1O[C@@H](c3ccc(C(=O)c4cccc(N)c4)cc3)O[C@]12C(=O)CO` [Compound 2-A], on human recombinant GR, the IC50 is 6.69 nM. For the same compound, it took 220 nM to reach a half-maximal effect in experiment [2] (EC50).
Turning to `C[C@]12C=CC(=O)C=C1CC[C@@H]1[C@@H]2[C@@H](O)C[C@@]2(C)[C@H]1C[C@H]1O[C@@H](c3ccc(Cc4cccc5c(N)cccc45)cc3)O[C@]12C(=O)CO` [Compound 3-A], the IC50 on human recombinant GR turned out to be 2.24 nM. The compound also yielded a concentration giving a half-maximal response (EC50) in experiment [2] of 190 nM. Moreover, in experiment [1], the “GRE reporter gene Emax” value is 1.53E6 RLU and the EC50 came to 1.47 nM.
For `C[C@]12C=CC(=O)C=C1CC[C@@H]1[C@@H]2[C@@H](O)C[C@@]2(C)[C@H]1C[C@H]1O[C@@H](c3ccc(C(F)(F)c4cccc(N)c4)cc3)O[C@]12C(=O)CO` [Compound 4-A] the same measures were 2.12 nM, 260 nM, 1.69E6 RLU and 2.16 nM.
In the case of `C[C@]12C=CC(=O)C=C1CC[C@H]1[C@@H]3C[C@H]4O[C@@H](c5ccc(C(=O)c6cccc(N)c6)cc5)O[C@@]4(C(=O)CO)[C@@]3(C)C[C@H](O)[C@@]12F` [Compound 5-A], the IC50 on human recombinant GR is 5.23 nM. In addition, in experiment [1], the “GRE reporter gene Emax” value was 2.3E7 RLU and it took 4.3 nM to reach a half-maximal effect (EC50).
Regarding adalimumab [Humira], in experiment [3], the “anti-inflammatory activity in the CAIA model” value is “weak anti-inflammatory activity”.
